The text below walks through data of US7589094B2, “N- (3-amino-2-hydroxy-propyl) substituted alkylamide compounds” (Elan Pharmaceuticals, Inc., priority 2001, dated 2009).

The melting point is the temperature of the solid-liquid transition.

Molecules are shown by their SMILES.

Molecule `CCCC1CCC(CC(=O)N[C@@H](Cc2cc(F)cc(F)c2)[C@H](O)CNCc2cccc(CC)c2)CC1=O` (stereo partly drawn) [Compound 213, N-{(1S,2R)-1-(3,5-difluorobenzyl)-3-[(3-ethylbenzyl)amino]-2-hydroxypropyl}-2-(3-oxo-4-propylcyclohexyl)acetamide] had a melting point of 52 to 54 °C.

`CCc1cccc(CNC[C@@H](O)[C@H](Cc2cc(F)cc(F)c2)NC(=O)CC2CCCC(=O)C2)c1` (stereo partly drawn) [Compound 214, N-{(1S,2R)-1-(3,5-difluorobenzyl)-3-[(3-ethylbenzyl)amino]-2-hydroxypropyl}-2-(3-oxocyclohexyl)acetamide] returned a melting point of 139.5 to 149.8 °C.
